# Measurements from publication PMC2644664, “Effects of the K65R and K65R/M184V reverse transcriptase mutations in subtype C HIV on enzyme function and drug resistance” (Retrovirology, 2009).
# What was measured:
# [1] = target: T1, subtype C HIV-1 RT (cWT), recombinant p66/p51 heterodimer; test: steady-state filter-binding assay, [3H]dATP incorporation; type: biochemical, Human immunodeficiency virus type 1; conditions: dPR primer on subtype C HIV-1 PBS RNA, 50 μM dCTP/dGTP/dTTP, 5 mM MgCl2, pH 7.8, 37°C
# T1 construct: gene pol; mature RT cut from Gag-Pol polyprotein; plasmid pcRT6H-PROT, His-tagged, E. coli M15(pREP4); with p51 RT
# Source text: steady-state filter-binding assay, [3H]dATP incorporation on subtype C HIV-1 RT (cWT), recombinant p66/p51 heterodimer
# [2] = tested on: T1, subtype C HIV-1 RT (cWT), recombinant p66/p51 heterodimer; test: gel-based primer extension, inhibition of full-length DNA synthesis; type: biochemical, Human immunodeficiency virus type 1; conditions: 19D/57D DNA primer/template
# Source text: gel-based primer extension, inhibition of full-length DNA synthesis on subtype C HIV-1 RT (cWT), recombinant p66/p51 heterodimer | we determined the efficiencies of incorporation of TFV-DP using subtype C WT
SMILES,"Ki ([1]; variable dATP, chain terminator, read-out: Ki(TFV), μM^b) [µM]",IC50 [2] [nM],Km ([1]; no TFV-DP) [µM]
C[C@H](Cn1cnc2c(N)ncnc21)OCP(=O)(O)OP(=O)(O)OP(=O)(O)O [TFV-DP],0.24 ± 0.04,2600 ± 500,
Nc1ncnc2c1ncn2[C@H]1C[C@H](O)[C@@H](COP(=O)(O)OP(=O)(O)OP(=O)(O)O)O1 [dATP],,,0.51 ± 0.04
